Experimental data reported in patent publication US20250268958A1, “COMMENSAL BACTERIA PROMOTE ENDOCRINE-RESISTANCE IN PROSTATE CANCER VIA ANDROGEN BIOSYNTHESIS” (FONDAZIONE PER L'ISTITUTO ONCOLOGICO DI RICERCA (IOR), priority 2021, published 2025).

Columns and labels:
Ruminococcaceae family [1] = assay: Gut microbiota composition in TRAMP-C1 mice under bipolar androgen therapy; type: in vivo, mouse; settings: high dose of testosterone vs vehicle
Experimental: FIG. 7—Pten^pc−/− and LNCaP castrated mice harbor a peculiar gut microbiota. […] (E) qPCR showing the abundance of R. gnavus and B. acidifaciens in feces of LNCaP mice that were either sham-operated (n=4), CTX (n=6), CTX+enzalutamide (n=6) at 85 days. TRAMP-C1 mouse models were treated with either vehicle or high dose of testosterone as per bipolar androgen therapy. (F) Tumor volume (vehicle n=5, high testosterone n=5). (G) Serum testosterone levels (vehicle n=5, high-testosterone n=5). (H) Heatmap representing differentially abundant bacteria (FDR<0.05) between mice injected with vehicle or high testosterone-dose (vehicle n=4, high-testosterone n=4). […]
Pten^pc−/− Murine 16S rDNA sequencing analysis and bacteria qPCR. […] DNA was extracted using a GNOME DNA isolation kit (MP) following the protocol described in (J. P. Furet et al., Comparative assessment of human and farm animal faecal microbiota using real-time quantitative PCR. FEMS Microbiol Ecol 68, 351-362 (2009)). […] In short, DNA concentration and quality were evaluated using NanoDrop 2000. […] PCR products were visualized on an agarose gel then quantified by qPCR using the KAPA Library Quantification Kit (KAPA Biosystems, KK4824). […] The pooled library was purified using the Agencourt AMPure XP kit (Beckman Coulter, A63880) and quantified with the same method prior to sequence using paired-end (read length=300 bases) on Illumina MiSeq. […]

TRAMP-C1 cells = assay: TRAMP-C1 allograft tumor model, castrated (CTX) or sham-operated mice; settings: high dose of testosterone vs vehicle
Experimental: C57BL6/N mice were challenged s.c. with 2.5×10^6 TRAMP-C1 cells. When tumors became palpable, mice were either castrated (CTX) or sham-operated (sham). After surgery, mice were either administered normal drinking water or antibiotic cocktail (ABX: neomycin 1 g/L, ampicillin 1 g/L, vancomycin 0.5 g/L and metronidazole 2 mg/mouse every other day). (A) Tumor volume (Sham n=14, Sham ABX n=4, CTX n=20, CTX ABX n=10) and (B) survival curve. […] Statistical analysis was performed with: (A), (F), (G) two-way ANOVA and Sidak's multiple comparison test; (B), (H), (1) Mantel Cox test; (C), (E), (K) unpaired two-sided Student's t-test. NS, not significant; *P<0.05; **P<0.01; ***P<0.001; ****P<0.0001.
Mice. […] 4 weeks old male C57BL6/N and NOD/SCID mice were purchased from Charles River (Calco, Italy) and acclimatized for four weeks before experimentation.

Ruminococcaceae family [2] = assay: Gut microbiota of mCRPC patients stratified by ADT regimen (whole genome metagenome); type: in vivo, human; settings: Abiraterone vs Enzalutamide
Experimental: FIG. 16—Different ADT regimens alter gut microbiota composition. (A) Pie chart representing the number of CRPC patients receiving Enzalutamide, Abiraterone or other treatment (Apalutamide, Docetaxel, Cabazitaxel or no active treatment) at the moment of the rectal swab. […] (C) Patients treated with enzalutamide (n=14) and apalutamide (n=1) were stratified according to the circulating testosterone level (≤10 ng/dL or >10 ng/dL). Pie charts show, within each group, the fraction of patients having Ruminococcus DSM_10044 in their gut microbiota.
Collection of patient feces. Patients with hormone-sensitive (HSPC) and metastatic CRPC consented to the analysis of their rectal swabs. […]
Whole genome metagenome analysis of patient feces. […] DNA was analyzed by Qubit (Invitrogen, Thermo Fisher Scientific, Waltham, USA) and integrity was checked by agarose gel electrophoresis.
Illumina TruSeq DNA libraries were prepared using the TruSeq nano DNA Library preparation kit (Illumina, San Diego, USA) according to the manufacturer's instructions. […] The final libraries were quantified using a Quant-iT™ PicoGreen™ ds DNA Assay Kit (Thermo Fisher Scientific, Waltham, USA) and equimolarly pooled prior to sequencing. […] Quality of the reads in fastq format was checked with the software FastQC (version 0.11.8). […]

SMILES	abundance of Ruminococcaceae family (Ruminococcaceae family [1])	tumor volume (TRAMP-C1 cells)	expansion of Ruminococcaceae family in gut microbiota (Ruminococcaceae family [2])
C[C@]12CC[C@H]3[C@@H](CCC4=CC(=O)CC[C@@]43C)[C@@H]1CC[C@@H]2O [bipolar androgen therapy, Testosterone]	decreased the abundance of Ruminococcaceae family	promoted tumor inhibition	
CNC(=O)c1ccc(N2C(=S)N(c3ccc(C#N)c(C(F)(F)F)c3)C(=O)C2(C)C)cc1F [Enzalutamide]			presented an expansion of Ruminococcaceae family
